# Measured values reported in US8974837B2, “Pharmaceutical composition comprising an extract of Pseudolysimachion longifolium and the catalpol derivatives isolated therefrom having antiinflammatory, antiallergic and antiasthmatic activity” (Korea Research Institute of Bioscience and Biotechnology, priority 2005, dated 2015).
# Key:
# Promyelotic HL-60 cells = experiment: MTT assay, cytotoxic effect on HL-60 cells; type: cell-based
# Protocol: (§1) To investigate the cytotoxic effect of inventive extract of P. longifolium extract and the compound isolated therefrom was determined by (3-[4,5-dimethylthiazol-2-yl]-2,5-diphenyl tetrazolium bromide(MTT) assay method (Wang Z et al., Biol., Pharm. Bull., 24, pp 159-162, 2001).
# (§2) Promyelotic HL-60 cells (HL-18103, 5×10^5 cells/ml) were seeded in 96-well plates under NGF-free condition. After 24 hours incubation, the cells were treated with the mixture of samples dissolved in 10 μl of DMSO and 10 μl of MTT solution (5 mg/ml), and incubated for 4 hours under similar condition. 4 hours later, MTT was removed and 100 μl of DMSO was dropped into each well to dissolve crystals. At 570 nm, UV absorbance was measured by microplate reader (BIO-RAD, U.S.A.) to calculate the cell viability.
# [1] = MTT assay, cytotoxic effect on HL-60 cells; type: cell-based; settings: human, HL-60 promyelocytic cells, read-out: Cell viability (%)
# Protocol: as §1, §2
# OVA-challenged mice [2] = experiment: OVA-induced eosinophilia: inflammatory cell counts in bronchoalveolar lavage fluid; type: in vivo, BALB/c mice; settings: from OVA-treated control group; 48 hours after last challenge
# From the text: (§3) Specific pathogen-free female BALB/c mice aged 8-10 weeks, which were routinely screened serologically for relevant respiratory pathogens, were purchased from ORIENT Co Ltd (Seoul, Korea).
# (§4) Following treatment: (1) sham-sensitization plus challenge with phosphate-buffered saline (PBS; ipNeb); (2) sensitization plus challenge with OVA (ovalbumin: Sigma A5503; Sigma, St. Louis, Mo.)(ipNeb); (3) sensitization with OVA (i.p.) plus challenge with OVA (Neb) and samples (extract of P. longifolium or montelukast) was performed to Group of mice (n=5). Briefly, mice were sensitized by intraperitoneal injection of 20 μg OVA, which was emulsified with 2 mg aluminum hydroxide in 100 μl of PBS buffer (pH 7.4) on days 0 and 14. The mice were challenged through the airways with OVA (1% in PBS) for 20 min using an ultrasonic nubuilizer (NE-U12; Omron Corp., Tokyo, Japan) on days 28, 29 and 30 after the initial sensitization. The mice were sacrificed 48 h after the last challenge (day 32) to determine the suppression effect of extract of P. longifolium or verproside on the airways of allergic asthma.
# (§5) The extract of P. longifolium, and verproside were suspended in PBS and administered intragastrically using a 25-gauge stainless steel blunt feeding needle 1 h before each challenge, and control animals were exposed only on the PBS solution. As a positive control, montelukast (MSD Korea Ltd., Seoul, Korea) was treated with the same procedure in the experiment.
# The mice were sacrificed with an overdose of pentobarbital (Sigma P3761) […] after the last challenge, and a tracheotomy was performed. After ice-cold 0.5 ml of PBS was instilled into the lungs, bronchoalveolar lavage fluid (BALF) was obtained by aspiration three times (total 1.5 ml) via tracheal cannulation (Yamazaki T, J. Jap. Bot., 43, pp 117-24, 1968)
# The total inflammatory cell number was assessed by counting cells in at least five squares of a hemocytometer after excluding dead cells confirmed by staining with trypan blue (Daigle I. et al., Swiss Med Wkly, 131, pp 231-7, 2001). 100 μl of BALF was loaded onto a slide and centrifuged (200×g, 4° C., 10 min) to fix the cells onto the slide using a cytospine machine (Hanil Science Industrial, Korea). The cells were stained by Diff-Quick® Stain reagents (Sysmex, Cat No. 38721, Switzerland) according to the manufacturer's instructions. Statistical significance was determined by Student's two-tailed t-test for independent means and the critical level for significance was set at P<0.05.
# To evaluate the suppression of verproside on the eosinophilia in OVA-challenged mice, the recruited cells in BALF were counted 48 hours after the last challenge. OVA caused a marked influx of leucocytes into the BALF from a PBS control group.
# OVA-challenged mice [3] = experiment: Lung histology (H&E and PAS staining) in OVA-challenged mice; type: in vivo, BALB/c mice; settings: for mucus area score: PAS, five-point system 0-4, OVA-treated mice 3.60±0.64, FIG. 5
# Protocol: as §4, §5
# To estimate the suppressive effect of verproside on the eosinophilia, lung tissues were collected 48 hours after the last challenge. The lung tissue was fixed for 24 h in 10% neutral-buffered formalin. After being embedded in paraffin, it is sliced into 4-μm thickness of sections and the tissue was stained with H&E solution (hematoxylin; Sigma MHS-16 and eosin, Sigma HT110-I-32).
# In Periodic acid Schiff (PAS) staining, mucus overproduction in the OVA-treated mice was clearly observed as a violet color in the bronchial airways compared with the normal mice. […] Goblet-cell hyperplasia in the airway epithelium was quantified based on a five-point system: 0, no goblet cells; 1, <25% of the epithelium; 2, 25-50% of the epithelium; 3, 50-75% of the epithelium; 4, >75% of the epithelium. For each mouse, five airway sections that were randomly distributed throughout the left lung were analysed, and their average scores were calculated. Quantitative analysis of mucus production was performed using an image analyzer (Leica Microsystem Imaging solution Ltd.; Cambridge, UK).
# IL-4 = experiment: Measurement of IL-4 in BALF by ELISA in OVA-induced asthmatic mice; type: in vivo, mouse; settings: from OVA-challenged group; 48 hours after last challenge
# Protocol: (§6) Following treatment: (1) sham-sensitization plus challenge with phosphate-buffered saline (PBS; ipNeb); (2) sensitization plus challenge with OVA (ovalbumin: Sigma A5503; Sigma, St. Louis, Mo.)(ipNeb); (3) sensitization with OVA (i.p.) plus challenge with OVA (Neb) and samples (extract of P. longifolium or montelukast) was performed to Group of mice (n=5). Briefly, mice were sensitized by intraperitoneal injection of 20 μg OVA, which was emulsified with 2 mg aluminum hydroxide in 100 μl of PBS buffer (pH 7.4) on days 0 and 14. […]
# (§7) Complementary capture and detection antibody pairs for mouse IgE antibodies were purchased from PharMingen (San Diego, Calif.), and the IgE enzyme-linked immunosorbent assay (ELISA) was performed according to the manufacturer's directions. […] IgE levels in each sample were measured from optical density readings at 450 nm, and IgE concentrations were calculated from a standard curve that was generated using recombinant IgE (5-2,000 ng/ml). The amount of IL-4 and IL-13 contained in BALF was measured with a specific mouse ELISA kit (R&D Systems; Minneapolis, Minn.). […]
# (§8) To determine the effect of verproside on cytokine release in the OVA-induced asthmatic mice, the levels of cytokines (IL-4 and IL-13) in BALF were measured using ELISA 48 hours after the last challenge. […]
# IL-13 = experiment: Measurement of IL-13 in BALF by ELISA in OVA-induced asthmatic mice; type: in vivo, mouse; settings: from OVA-challenged group; 48 hours after last challenge
# Protocol: as §6, §7, §8
# IgE = experiment: Measurement of IgE by ELISA in plasma and BALF of OVA-challenged mice; type: in vivo, mouse; settings: for IgE level in BALF: OVA-treated mice 59.4±38.4; for IgE level in plasma: OVA-treated mice 85.6±17.3
# Protocol: as §4, §5
# Complementary capture and detection antibody pairs for mouse IgE antibodies were purchased from PharMingen (San Diego, Calif.), and the IgE enzyme-linked immunosorbent assay (ELISA) was performed according to the manufacturer's directions. Duplicate samples in plasma were diluted to 1:100. IgE levels in each sample were measured from optical density readings at 450 nm, and IgE concentrations were calculated from a standard curve that was generated using recombinant IgE (5-2,000 ng/ml). The amount of IL-4 and IL-13 contained in BALF was measured with a specific mouse ELISA kit (R&D Systems; Minneapolis, Minn.). The detection limit of the assays was 250 pg/ml.
# [4] = tested on: OVA-sensitized/challenged mouse model; experiment: Airway hyperresponsiveness (AHR), Penh values in OVA-challenged mice; type: in vivo, BALB/c mice; settings: 24 hours after final OVA challenge; FIG. 1
# Protocol: The AHR was evaluated by calculation Penh values (enhanced pause) 24 hours after the final OVA challenge.
# as §3
# as §4, with “asthma. […]” for “asthma.”
Structure (SMILES),Cell viability (%) (Promyelotic HL-60 cells; 50 μM),Cell viability (%) (Promyelotic HL-60 cells; 100 μM),"viability at 4 h, 50 µM ([1]; 50 μM) [%]","viability at 4 h, 100 µM ([1]; 100 μM) [%]",decrease in eosinophils in BALF (OVA-challenged mice [2]) [%],decrease in total cells in BALF (OVA-challenged mice [2]) [%],mucus area score (OVA-challenged mice [3]),decrease in IL-4 in BALF (IL-4) [%],decrease in IL-13 in BALF (IL-13) [%],IgE level in BALF (IgE) [ng/mL],IgE level in plasma (IgE) [µg/mL],"infiltration of eosinophil-rich leukocytes in lung tissue (H&E) (OVA-challenged mice [3]; compared with OVA-treated mice, 48 hours after last challenge, FIG. 3)","mucus in bronchial airways (PAS staining) (OVA-challenged mice [3]; compared with OVA-treated mice, FIG. 4)",Penh value compared with OVA-treated group (in words) [4]
"COc1ccc(C(=O)O[C@H]2[C@@H]3C=CO[C@@H](O[C@@H]4O[C@H](CO)[C@@H](O)[C@H](O)[C@H]4O)[C@@H]3[C@@]3(CO)O[C@@H]23)cc1OC [6-O-veratroyl catalpol, 6-O-(3,4-dimethoxybenzoyl) catalpol]",116,114,–,–,–,–,–,–,–,–,–,–,–,–
"COc1ccc(/C=C/C(=O)O[C@H]2[C@@H]3C=CO[C@@H](O[C@@H]4O[C@H](CO)[C@@H](O)[C@H](O)[C@H]4O)[C@@H]3[C@@]3(CO)O[C@@H]23)cc1O [Minecoside, 6-O-3-hydroxy-4-methozycinnamoyl catalpol]",–,–,98,95,–,–,–,–,–,–,–,–,–,–
"CC(C)(O)c1ccccc1CC[C@@H](SCC1(CC(=O)O)CC1)c1cccc(/C=C/c2ccc3ccc(Cl)cc3n2)c1 [montelukast, reference compound]",–,–,–,–,80.7±11.1,78.3±12.1,1.53±0.24,69.5±22.0,84.5±8.2,3.8 ± 0.7,31.4 ± 14.2,–,–,–
"O=C(O[C@H]1[C@@H]2C=CO[C@@H](O[C@@H]3O[C@H](CO)[C@@H](O)[C@H](O)[C@H]3O)[C@@H]2[C@@]2(CO)O[C@@H]12)c1ccc(O)c(O)c1 [verproside, 6-O-3,4-Dihydroxybenzoyl catalpol]",105,102,–,–,86.2±7.2,79.3±13.1,1.43±0.23,64.5±27.7,74.9±15.5,21.5 ± 11.2,40.2 ± 13.2,significantly attenuated,markedly diminished,significantly reduced
